Measured values taken from PubChem BioAssay AID1963421 (Molecular Pharmacology Branch, DTP, NCI, 2024).

Tested on: 519858-162-T-J1-PDC complex spheroid growth, % test/control
Assay: Anticancer human tumor 519858-162-T-J1-PDC patient-derived colon adenocarcinoma cell line growth inhibition [Asc]
Details: for IC50: curve of first compound; for viability, T/C: stronger effect = lower value
Procedure, shortened: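 Tumor cells were grown as complex spheroids with human endothelial cells (HUVEC) and human mesenchymal stem cells as stroma. Agents were tested alone and in combination, in half-log steps down from the clinical Cmax, or from 10 microM where Cmax was unknown.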

[1] = second compound 0.0316 µM, first compound 0.0316 µM
[2] = second compound 0.0316 µM, first compound 0.1 µM
[3] = second compound 0.0316 µM, first compound 0.316 µM
[4] = second compound 0.0316 µM, first compound 1 µM
[5] = second compound 0.1 µM, first compound 0.0316 µM
[6] = second compound 0.1 µM, first compound 0.1 µM
[7] = second compound 0.1 µM, first compound 0.316 µM
[8] = second compound 0.1 µM, first compound 1 µM
[9] = second compound 0.316 µM, first compound 0.0316 µM
[10] = second compound 0.316 µM, first compound 0.1 µM
[11] = second compound 0.316 µM, first compound 0.316 µM
[12] = second compound 0.316 µM, first compound 1 µM
[13] = second compound 1 µM, first compound 0.0316 µM
[14] = second compound 1 µM, first compound 0.1 µM
[15] = second compound 1 µM, first compound 0.316 µM
[16] = second compound 1 µM, first compound 1 µM
[17] = second compound 3.16 µM, first compound 0.0316 µM
[18] = second compound 3.16 µM, first compound 0.1 µM
[19] = second compound 3.16 µM, first compound 0.316 µM
[20] = second compound 3.16 µM, first compound 1 µM
[21] = second compound 10 µM, first compound 0.0316 µM
[22] = second compound 10 µM, first compound 0.1 µM
[23] = second compound 10 µM, first compound 0.316 µM
[24] = second compound 10 µM, first compound 1 µM
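Further: seven day drug exposure begun three days after spheroid seeding.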
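Wherever viability, T/C is given: 100% = DMSO vehicle wells and lower values mean less viable spheroid.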

C=C(F)C(=O)N1CCN(c2nc(OCC3CCCN3C)nc3c2CCN(c2cccc4cccc(Cl)c24)C3)CC1CC#N (stereo unspecified) + Cc1c(S(C)(=O)=O)c(-c2cc(F)cc(N3CCN(c4ccc(NS(=O)(=O)c5ccc(NC(CCN6CCC(C(=O)OCCCP(=O)(O)O)CC6)CSc6ccccc6)c(S(=O)(=O)C(F)(F)F)c5)cc4)CC3)c2)c(-c2ccc(Cl)cc2)n1C(C)C
IC50 (second compound 0.0316 µM): < 0.0316 µM
IC50 (second compound 0.1 µM): 9.04 µM
IC50 (second compound 0.316 µM): 6.37 µM
IC50 (second compound 1 µM): 5.09 µM
IC50 (second compound 3.16 µM): 2.51 µM
IC50 (second compound 10 µM): 2.69 µM
viability, T/C [1]: 43.8%
viability, T/C [2]: 78.2%
viability, T/C [3]: 94.3%
viability, T/C [4]: 98.9%
viability, T/C (second compound 0.0316 µM, first compound 3.16 µM): 82.6%
viability, T/C (second compound 0.0316 µM, first compound 10 µM): 64.9%
viability, T/C [5]: 115%
viability, T/C [6]: 111%
viability, T/C [7]: 103%
viability, T/C [8]: 89%
viability, T/C (second compound 0.1 µM, first compound 3.16 µM): 84.8%
viability, T/C (second compound 0.1 µM, first compound 10 µM): 45.3%
viability, T/C [9]: 95.9%
viability, T/C [10]: 102%
viability, T/C [11]: 88%
viability, T/C [12]: 70.2%
viability, T/C (second compound 0.316 µM, first compound 3.16 µM): 61.9%
viability, T/C (second compound 0.316 µM, first compound 10 µM): 43.5%
viability, T/C [13]: 102%
viability, T/C [14]: 84.7%
viability, T/C [15]: 116%
viability, T/C [16]: 86.5%
viability, T/C (second compound 1 µM, first compound 3.16 µM): 62.8%
viability, T/C (second compound 1 µM, first compound 10 µM): 33.2%
viability, T/C [17]: 86.9%
viability, T/C [18]: 74.1%
viability, T/C [19]: 81.8%
viability, T/C [20]: 61.1%
viability, T/C (second compound 3.16 µM, first compound 3.16 µM): 47.9%
viability, T/C (second compound 3.16 µM, first compound 10 µM): 13.5%
viability, T/C [21]: 86.7%
viability, T/C [22]: 66.5%
viability, T/C [23]: 72.4%
viability, T/C [24]: 62.3%
viability, T/C (second compound 10 µM, first compound 3.16 µM): 51.4%
viability, T/C (second compound 10 µM, first compound 10 µM): 3.12%

CCN1C(C(=O)NC23CCC(C(=O)O)(CC2)CC3)C(c2cccc(Cl)c2F)C2(C(=O)Nc3cc(Cl)ccc32)C12CCCCC2 (stereo unspecified) + Cc1c(S(C)(=O)=O)c(-c2cc(F)cc(N3CCN(c4ccc(NS(=O)(=O)c5ccc(NC(CCN6CCC(C(=O)OCCCP(=O)(O)O)CC6)CSc6ccccc6)c(S(=O)(=O)C(F)(F)F)c5)cc4)CC3)c2)c(-c2ccc(Cl)cc2)n1C(C)C
IC50 (second compound 0.0316 µM): > 3 µM
IC50 (second compound 0.1 µM): > 3 µM
IC50 (second compound 0.316 µM): > 3 µM
IC50 (second compound 1 µM): > 3 µM
IC50 (second compound 3.16 µM): > 3 µM
IC50 (second compound 10 µM): 0.748 µM
viability, T/C (second compound 0.0316 µM, first compound 0.00949 µM): 74.8%
viability, T/C (second compound 0.0316 µM, first compound 0.03 µM): 50%
viability, T/C (second compound 0.0316 µM, first compound 0.0949 µM): 76.3%
viability, T/C (second compound 0.0316 µM, first compound 0.3 µM): 79.4%
viability, T/C (second compound 0.0316 µM, first compound 0.949 µM): 61.8%
viability, T/C (second compound 0.0316 µM, first compound 3 µM): 79.5%
viability, T/C (second compound 0.1 µM, first compound 0.00949 µM): 83.2%
viability, T/C (second compound 0.1 µM, first compound 0.03 µM): 104%
viability, T/C (second compound 0.1 µM, first compound 0.0949 µM): 84%
viability, T/C (second compound 0.1 µM, first compound 0.3 µM): 87.6%
viability, T/C (second compound 0.1 µM, first compound 0.949 µM): 55.4%
viability, T/C (second compound 0.1 µM, first compound 3 µM): 71%
viability, T/C (second compound 0.316 µM, first compound 0.00949 µM): 80.8%
viability, T/C (second compound 0.316 µM, first compound 0.03 µM): 95.1%
viability, T/C (second compound 0.316 µM, first compound 0.0949 µM): 84.9%
viability, T/C (second compound 0.316 µM, first compound 0.3 µM): 78%
viability, T/C (second compound 0.316 µM, first compound 0.949 µM): 65.7%
viability, T/C (second compound 0.316 µM, first compound 3 µM): 54.1%
viability, T/C (second compound 1 µM, first compound 0.00949 µM): 67.7%
viability, T/C (second compound 1 µM, first compound 0.03 µM): 69.4%
viability, T/C (second compound 1 µM, first compound 0.0949 µM): 75.5%
viability, T/C (second compound 1 µM, first compound 0.3 µM): 56%
viability, T/C (second compound 1 µM, first compound 0.949 µM): 93.4%
viability, T/C (second compound 1 µM, first compound 3 µM): 49.8%
viability, T/C (second compound 3.16 µM, first compound 0.00949 µM): 57.5%
viability, T/C (second compound 3.16 µM, first compound 0.03 µM): 56.8%
viability, T/C (second compound 3.16 µM, first compound 0.0949 µM): 73.6%
viability, T/C (second compound 3.16 µM, first compound 0.3 µM): 46.8%
viability, T/C (second compound 3.16 µM, first compound 0.949 µM): 49.3%
viability, T/C (second compound 3.16 µM, first compound 3 µM): 60.9%
viability, T/C (second compound 10 µM, first compound 0.00949 µM): 55.2%
viability, T/C (second compound 10 µM, first compound 0.03 µM): 65.4%
viability, T/C (second compound 10 µM, first compound 0.0949 µM): 30.6%
viability, T/C (second compound 10 µM, first compound 0.3 µM): 71.8%
viability, T/C (second compound 10 µM, first compound 0.949 µM): 43.1%
viability, T/C (second compound 10 µM, first compound 3 µM): 36.7%

CNC(C)C(=O)NC1CN(S(=O)(=O)c2cccc(S(=O)(=O)N3CCC4CCC(C(=O)NC(c5ccccc5)c5ccccc5)N4C(=O)C(NC(=O)C(C)NC)C3)c2)CCC2CCC(C(=O)NC(c3ccccc3)c3ccccc3)N2C1=O (stereo unspecified) + Cc1c(S(C)(=O)=O)c(-c2cc(F)cc(N3CCN(c4ccc(NS(=O)(=O)c5ccc(NC(CCN6CCC(C(=O)OCCCP(=O)(O)O)CC6)CSc6ccccc6)c(S(=O)(=O)C(F)(F)F)c5)cc4)CC3)c2)c(-c2ccc(Cl)cc2)n1C(C)C
IC50 (second compound 0.0316 µM): > 1 µM
IC50 (second compound 0.1 µM): > 1 µM
IC50 (second compound 0.316 µM): > 1 µM
IC50 (second compound 1 µM): > 1 µM
IC50 (second compound 3.16 µM): > 1 µM
IC50 (second compound 10 µM): 0.506 µM
viability, T/C (second compound 0.0316 µM, first compound 0.00316 µM): 92.5%
viability, T/C (second compound 0.0316 µM, first compound 0.01 µM): 110%
viability, T/C [1]: 45%
viability, T/C [2]: 110%
viability, T/C [3]: 81.5%
viability, T/C [4]: 81.5%
viability, T/C (second compound 0.1 µM, first compound 0.00316 µM): 113%
viability, T/C (second compound 0.1 µM, first compound 0.01 µM): 117%
viability, T/C [5]: 124%
viability, T/C [6]: 90%
viability, T/C [7]: 76.7%
viability, T/C [8]: 97.5%
viability, T/C (second compound 0.316 µM, first compound 0.00316 µM): 104%
viability, T/C (second compound 0.316 µM, first compound 0.01 µM): 107%
viability, T/C [9]: 86.8%
viability, T/C [10]: 78.5%
viability, T/C [11]: 72.3%
viability, T/C [12]: 87.1%
viability, T/C (second compound 1 µM, first compound 0.00316 µM): 102%
viability, T/C (second compound 1 µM, first compound 0.01 µM): 100%
viability, T/C [13]: 83.6%
viability, T/C [14]: 93%
viability, T/C [15]: 96.5%
viability, T/C [16]: 68.9%
viability, T/C (second compound 3.16 µM, first compound 0.00316 µM): 86.9%
viability, T/C (second compound 3.16 µM, first compound 0.01 µM): 93%
viability, T/C [17]: 95.7%
viability, T/C [18]: 82.5%
viability, T/C [19]: 66.8%
viability, T/C [20]: 75%
viability, T/C (second compound 10 µM, first compound 0.00316 µM): 60.5%
viability, T/C (second compound 10 µM, first compound 0.01 µM): 63.2%
viability, T/C [21]: 70.2%
viability, T/C [22]: 49%
viability, T/C [23]: 63.1%
viability, T/C [24]: 33.9%
